Data reported in the NIST ThermoML archive (doi:10.1016/j.jct.2015.05.027).

Settings: Liquid, Vibrating tube method

CCC(C)O (centres undefined) [butan-2-ol]
mass density [kg/m3]
Settings	293.15 K	298.15 K	313.15 K	333.15 K	353.21 K	373.24 K	393.27 K
100 kPa	806.7	802.6	789.5	770.8	750.3	–	–
1000 kPa	807.4	803.3	790.3	771.7	751.4	729.1	704.8
5000 kPa	810.4	806.4	793.6	775.6	756	734.5	711.4
10000 kPa	814	810.1	797.7	780.2	761.3	740.8	718.8
15000 kPa	817.4	813.6	801.6	784.6	766.4	746.6	725.6
20000 kPa	820.7	817	805.2	788.8	771	751.9	731.7
25000 kPa	823.9	820.2	808.5	792.6	775.4	757	737.4
30000 kPa	826.9	823.4	812.1	796.3	779.5	761.6	742.7
35000 kPa	829.9	826.3	815.3	800	783.5	766.1	747.8
40000 kPa	832.7	829.2	818.4	803.4	787.2	770.4	752.5
45000 kPa	835.4	832	821.3	806.6	790.8	774.4	757
50000 kPa	838.1	834.7	824.2	809.7	794.5	778.1	761.2
55000 kPa	840.6	837.4	827	812.8	797.7	781.9	765.4
60000 kPa	843.2	839.9	829.8	815.8	801	785.4	769.2
65000 kPa	845.7	842.4	832.5	818.7	804.1	788.8	773
70000 kPa	848	844.8	835	821.4	807.2	792.1	776.6
80000 kPa	852.6	849.5	839.9	826.7	812.9	798.5	783.4
90000 kPa	857.1	854	844.7	831.9	818.3	804.3	789.8
100000 kPa	861.2	858.2	849.1	836.7	823.5	809.8	795.8
110000 kPa	865.3	862.4	853.4	841.2	828.5	815.1	801.5
120000 kPa	869.2	866.2	857.5	845.5	833.1	820.1	806.8
130000 kPa	873	870.1	861.5	849.8	837.6	824.9	811.9
140000 kPa	876.6	873.7	865.4	853.8	842	829.5	816.8
